Values quoted from earlier work as cited in patent US9738653B2, “Fused furans for the treatment of hepatitis C” (BRISTOL-MYERS SQUIBB COMPANY, priority 2013, dated 2017).

What was measured:
HCV [1] = conditions: combination therapy; cited from earlier work
HCV [2] = conditions: cited from earlier work

Compound	sustained efficacy, patients (HCV [1]) [%]	hepatic toxicity (HCV [2]; extended dosing of the combination regimens with interferon and ribavirin)	HCV RNA levels in patients (HCV [2]; patients, single agent)
alpha-interferon and ribavirin	40	–	–
CNC(=O)c1c(-c2ccc(F)cc2)oc2cc(N(CCO)S(C)(=O)=O)c(C3CC3)cc12 [HCV-796]	–	hepatic toxicity observed	showed an ability to reduce HCV RNA levels in patients
